Results: patent US20230390282A1, “TREATMENT OF EYE CONDITIONS” (The University of Birmingham, priority 2020, published 2023)
“Also recorded” adds a separate entry of the source.

Legend:
RGC [1] = settings: 24 days after ONC
RGC [2] = experiment: Rat retinal cultures: RGC survival and neurite outgrowth; type: cell-based; settings: 1-50 μM
Protocol: (§1) Rat DRGN and retinal cultures. […] Cells were cultured for 4 days in a humidified chamber at 37° C. and 5% CO2 before being subjected to quantitative RT-PCR or immunocytochemistry, as described below.

RGC [3] = experiment: Glaucoma model (intracameral TGFβ): RGC survival; type: in vivo, rat; settings: 30 days after the induction of glaucoma
Protocol: Induction of glaucoma. […] Intraocular pressure was measured using an iCare
Tonolab rebound tonometer (Icare, Helsinki, Finland).

[4] = test system: dorsal root ganglion neuron (DRGN) cultures; experiment: Primary adult rat DRGN cultures: survival and neurite outgrowth; type: cell-based
Protocol: as §1

dorsal column (DC) axons = experiment: T8 dorsal column (DC) crush model of spinal cord injury: axon regeneration, electrophysiology, sensory and locomotor tests; type: in vivo, rat; settings: for DC axon regeneration: GAP43+ axons rostral to/beyond the lesion site
Protocol: DC crush injury model. Rats were injected subcutaneously with 0.05 ml Buprenorphine to provide analgesia prior to surgery and anaesthetised using 5% of Isoflurane in 1.8 ml/l of O2 with body temperature and heart rate monitored throughout surgery.
Chk2 inhibition studies in the DC crush injury model. […] Chk1i (LY2603618) was used at equimolar concentrations for each experiment. Rats were killed in a rising concentration of CO2 at either 28 d for immunohistochemistry and western blot analyses or 6 weeks for electrophysiology and functional tests.
Sham treated animals (partial laminectomy but no DC injury) were also included as additional controls. At 4 weeks after DC injury and treatment, ipsilateral L4/L5 DRG pairs were harvested, total RNA extracted using Trizol reagent as described above and knock down of Chk1 and Chk2 mRNA knockdown using quantitative qRT-PCR, as described above. Contralateral L4/L5 DRG pairs were treated the same as above and used as controls. […] This included western blot to determine pChk1 and pChk2 levels after shChk2 treatment. For these experiments, animals were randomly assigned to DC+shNull and DC+shChk2 groups each comprising n=6 rats and repeated on 3 independent occasions (total n=18 rats/group). […] Animals were allowed to survive for 6 weeks with functional testing (tape sensing+removal and ladder crossing tests) performed pre- and post-DC injury as described below. Electrophysiology was performed on the same set of animals at 6 weeks after DC injury and treatment as described below.
Quantification of DC axon regeneration. […] Briefly, the number of intersections of GAP43^+ fibers were counted through a dorsoventral orientated line in reconstructed serial parasagittal sections of the cord (serial 50μm-thick sections ˜70-80 sections/animal; n=10 rats/treatment)). Axon number was then represented as % of fibers counted at 4 mm above the lesion, where the DC was intact.
Electrophysiology. […] Briefly, with the experimenter masked to the treatment conditions, silver wire electrodes applied single-current pulses (0.05 ms) through a stimulus isolation unit in increments (0.2, 0.3, 0.6, 0.8, and 1.2 mA) at L1-L2 and compound action potentials (CAP) were recorded at C4-C5 along the surface of the midline spinal cord. Spike 2 software was then used to calculate CAP amplitudes between the negative deflection after the stimulus artifact and the next peak of the wave. CAP area was calculated by rectifying the negative CAP component (full-wave rectification) and measuring its area. At the different stimulation intensities. […] Representative CAP traces are processed output data from Spike 2 software.
Functional tests. […] Briefly, animals (n=6 rats/group, 3 independent repeats; total n=18/group) received training to master traversing the horizontal ladder for 1w before functional testing. Baseline parameters for all functional tests were established 2-3 d before injury. Animals were then tested 2 d after DC lesion+treatment and then weekly for 6 weeks. Experiments were performed by 2 observers (treatment conditions were masked) in the same order, the same time of day and each test performed for 3 individual trials. Horizontal ladder test: This tests the animals locomotor function and is performed on a 0.9-meter-long horizontal ladder with a diameter of 15.5 cm and randomly adjusted rungs with variable gaps of 3.5-5.0 cm. The total number of steps taken to cross the ladder and the left and right rear paw slips being were recorded and the mean error rate was then calculated by dividing the number of slips by the total number of steps taken.

RGC [5] = experiment: Optic neuritis model: RGC survival and RNFL thickness; type: in vivo, mice
Protocol: Induction of optic neuritis. […] Animals were intraperitoneally injected with 150 ng Bordetella pertussis toxin on day 0 and 2. Animals were monitored daily and assessed for the development of EAE. At the end of the experiment, animals were then killed by CO2 overdose.
Measurement of RNFL thinning using optical coherence tomography (OCT). A Spectralis HRA+OCT machine was used to capture OCT images. Examinations were recorded in both right (oculus dextrus, OD) and left eyes (oculus sinister, OS) of each animal at day 0 and day 21 after immunisation. […] A RNFL single exam using the automatic real time (ART) mode (allows averaging of 100 recordings) was produced for each mouse eye, which automatically measured RNFL thickness (μm) in a 30° circle surrounding the optic nerve head.

[6] = Chk2i: 3 weeks after injury, others over the whole 6 weeks

Row | Compound | effect on ERG traces (RGC [1]) | effect on RGC survival (RGC [2]) | protection of RGC from death (RGC [3]) | effect on DRGN survival ([4]; 1-50 μM) | neurite outgrowth in DRGN ([4]; 4 days in culture) | DRGN survival ([4]; 4 days in culture, NBA-treated controls 40%) | mean CAP area at different stimulation intensities (dorsal column (DC) axons; 6 weeks after DC injury) | negative CAP amplitudes (dorsal column (DC) axons; 6 weeks after DC injury, all stimulation intensities) | ladder crossing test (locomotor function) outcome (dorsal column (DC) axons; [6]) | tape sensing/removal test (sensory function) outcome (dorsal column (DC) axons; [6]) | DC axon regeneration (dorsal column (DC) axons) | protection of RGC from death (RGC [5]; 21 days after induction) | protection against retinal nerve fibre layer thinning (RGC [5]; OCT at day 21) | improvement in RGC function measured by flash electroretinography (ERG) amplitude (RGC [1]) | % DRGN with neurites ([4]; 4 days in culture) | mean neurite length ([4]; 4 days in culture, controls 12 μm)
1 | Cc1cnc(NC(=O)Nc2cc(Br)c(C)cc2OC[C@@H]2CNCCO2)cn1 [Chk1i] | no effect | no effect | no effect | no effect | no effect | no effect | significantly attenuated | significantly attenuated | significant deficit remains; also recorded: deficit remaining | significant deficit remained | no axon regeneration beyond the lesion site | no effect | no effect | – | – | –
2 | COc1cc2nc(-c3cc(F)ccc3O)nc(N[C@@H]3CNC[C@H]3C(C)(C)O)c2cc1OC [Chk2i] | – | – | – | – | – | – | – | – | – | – | significant DC axon regeneration | – | – | > 83% | – | –
3 | FGF2: positive control for DRGN cultures, pre-optimised 10 ng/ml | – | – | – | – | – | – | – | – | – | – | – | – | – | – | 42% | 180 μm
